Data set [1] in a line: Formation of adducts with MGO, kinetic study by HPLC. Type of data set: physicochemical. The note with it: compound 10 mM, MGO 20 mM, 37° C., after 15 min of incubation. On the procedure: The compounds to be tested are incubated at 37° C. in the presence of MGO or of MDA. A kinetic study aiming to report on the formation of adducts with the MGO or MDA is then carried out via HPLC analysis.
The compounds to be tested (30 μmol) are dissolved in PBS (1.5 mL). An aqueous solution (qsp 1.25 mL) of MGO at 40% in water (250 μmol) is then prepared and in parallel, MDA bis-(diOEt)-acetal (250 μmol) is set to react with a solution of HCl 1N (2 eq) in water (qsp 1.25 mL) for 1 h at room temperature. An aqueous solution of NaOH 0.05N is also required to neutralise the reaction medium (5 mL).
The solution of the compound to be tested (625 μL—final concentration in the medium=10 mM) is then set to react with the solution of MGO or of MDA prepared extemporaneously (125 μL—final concentration in the medium=20 mM) in the presence of NaOH 0.05 N (0.5 mL).
The various mixtures are then incubated in the oven at 37° C. for 24 h.
A sampling of each mixture (100 μL) is taken at regular intervals of time (0.25; 0.5; 1; 5 and 24 h) and stored at −20° C. in order to stop the reaction. After dilution in a MeCN/H2O 98:2 mixture at room temperature, the HPLC analysis is carried out on a Shimadzu LCMS-2020 apparatus (UV chromatogram at 190 nm and mass spectrum in positive electrospray ionisation mode (ESI+)) after separation on the Waters Acquity column using a gradient of solvents H2O+HCOOH 0.1%/MeCN+HCOOH 0.1% (98/2 for 2 min, then 55/45 for 2 min and 45/55 for 3 min) with a flow rate of 0.3 mL/min at 40° C. and an injection of volume of 1 (“detection mode: scan, interface voltage: tuning file, DL voltage: 100 V, Q-array DC: 40 V, Q-array RF: 40 V”). A blank is first of all carried out using a solution containing the reaction medium without scavenger. Then, a free scavenger solution at 10 mM is used as a negative control and the carnosine as a reference of the literature. The proportion of adducts formed with the MGO or MDA (generally, tR=4.1 to 6.8 min) is then measured in relation to the quantity of remaining free scavenger (generally, tR=0.8 to 4.6 min) after measurement of the area under the curve of the corresponding peaks on the UV spectrum (measurements taken for a representative sample).

The nature of data set [2]: Cu2+ chelating properties by UV/Visible light spectrophotometry (murexide). Type of data set: physicochemical. The note with it: 0.02-2 mM compound, CuSO4 0.25 mM solution, Hexamine buffer pH 5, RT 10 min. How it is done: J. Mol. Sci., 2009, 10, 5485-5497; Molecules, 2012, 17, 13457-13472). […] A Hexamine buffer 0.01 M/KCl 0.01 M (qsp 200 mL) of which the pH is adjusted to 5 using a solution of HCl 1N is first of all prepared. Solutions of CuSO4.5H2O at 0.5 mM (20 mL) and 0.25 mM (100 mL) are then carried out in this buffer, with the first being used to obtain the calibration curve. An aqueous solution of murexide at 1 mM must also be prepared extemporaneously (10 mL) as well as a stock solution of the compounds to be tested at 4.2 mM in Hexamine buffer 0.01 M/KCl 0.01 M or in a buffer and MeOH 75/25 mixture (6.2 mL). Various concentrations of the compounds to be tested are distributed in Hexamine buffer 0.01M/KCl 0.01M (pH=5) (Table 5) or in a buffer and MeOH 75/25 mixture in tubes for hemolysis (Table 6). The solution of CuSO4.5H2O at 0.25 mM (1 mL) is then added and this is allowed to incubate at RT for 10 min. Finally, the aqueous solution of murexide at 1 mM (0.1 mL) is introduced and is again allowed to incubate at RT for 1 min. The absorbances are then measured at 485 nm ([…]) and 520 nm ([…]) by UV/Visible light spectrophotometry (V-650 JASCO spectrometer) (measurements taken in triplicates). […] After introduction of the aqueous solution of murexide at 1 mM (0.1 mL), this is allowed to incubate at RT for 1 min and the absorbances are finally measured at 485 nm ([…]) and 520 nm ([…]) by UV/Visible light spectrophotometry.

Data set [3] can be described thus: ORACFL test (Oxygen Radical Absorbance Capacity) using fluorescein/AAPH. Type of data set: physicochemical. Particulars: compounds at 10 μM; mean ± SEM of three independent experiments in triplicate. How it is done: The antioxidant properties of the compounds according to the invention were evaluated using a ORACFL test using fluorescein (J. Agric. Food Chem., 2004 52, 48-54; J. Agric. Food Chem., 2005, 53, 4290-4302). As such, peroxide radicals, generated in the presence of AAPH (2,2′-azobis(2-methylpropionamidine)dihydrochloride) at 37° C., react with this fluorescent sensor in order to give a non-fluorescent product. The protective effect of the test compounds can then be determined by following the decay curve of the fluorescence of the fluorescein over time and be measuring the area under the curve (AUC) of the sample in relation to that of a control corresponding to an absence of antioxidant.
The trolox (6-hydroxy-2,5,7,8-tetramethylchroman-2-carboxylic acid), a water-soluble analogue of vitamin E, is used as a standard for calculating the antioxidant capacity (ORACFL) of the compounds tested at 10 μM, expressed in […] of tested compound. This value is as such obtained using the straight-line calibration equation giving the area under the curve according to the various concentrations of trolox (Bioorg. Med. Chem., 2015, 23, 1135-1148) (FIG. 11).
A solution of fluorescein (FL) (12 nM; 150 μL) is introduced into a black 96-well plate (Dutscher, Brumath, France). The compounds to be tested (1-20 μM; 25 μL) or trolox (1-50 μM; 25 μL) dissolved in D-PBS are added into each well. After equilibration of the plate during an incubation at 37° C. for a minimum of 30 min, the radical reactions are initiated using a solution of AAPH prepared extemporaneously (30 mM; 25 μL). The fluorescence (λEx: 485 nm; λEm: 520 nm) is measured every 90 seconds for 60 cycles using a temperature-controlled Tecan Infinite® 200 PRO microplate reader (measurements taken in triplicates during three independent experiments).

For data set [4], the system named is low-density lipoproteins (LDLs). The data set can be described thus: Antiradical properties: inhibition of lipid peroxidation in AAPH-induced oxidation of LDLs. Type of data set: biochemical. On the procedure:
The antiradical properties of the various compounds are determined by inhibition of the lipid peroxidation in the in vitro model of the oxidation of the low-density lipoproteins (LDLs) (Free Radic. Biol. Med., 1992, 13, 341-390). The lipid peroxidation is initiated by the attack by free radicals of a double bond of a polyunsaturated fatty acid present in the LDLs. […] Once initiated, the oxidation of the LDLs is a chain reaction of lipid peroxidation generated by the free radicals. The oxidation in vitro of the LDLs is induced at 37° C. by the adding of the water-soluble compound 2,2′-Azobis(2-methylpropionamidine)dihydrochloride (AAPH), which generates free radicals during the spontaneous thermal breakdown thereof
Briefly, the oxidation, carried out in a 96-well plate, is induced at 37° C. by adding 20 μL of a solution of AAPH at 2 mM in D-PBS at 160 μL of LDL (100 μg/mL) in the presence or absence of 20 μL of the various solutions of the compounds to be tested dissolved in D-PBS (0.1 to 100 μM in final concentrations). The LDLs alone without adding AAPH are used as a negative control. Each oxidation is carried out in double. During the oxidation, the formation of the conjugated dienes is followed by the measurement of the optical density at 234 nm every 10 minutes for 8 h at 37° C. using a temperature-controlled TECAN spectrophotometer. The vitamin E (α-tocopherol) which is a powerful antioxidant recognised in this in vitro model is used as a reference molecule (J. Nutr. Biochem., 2012, 23, 845-51).

Data set [5] has as its system murine endothelial brain cells (bEnd.3). The data set is described as follows: Cytotoxicity, cellular viability (CCK-8/WST-8) on bEnd.3. It counts as cell-based. The note with it: mouse. On the procedure:
(§1) The cellular viability is evaluated by a colorimetric method based on the detection of the conversion of a salt of the tetrazolium (WST-8) by the metabolically active cells (CCK-8 kit, Sigma, Lyons, France) (Molecules, 2014, 19(8), 12048-12064; J. Pharmacol. Toxicol. Methods., 2007, 56(1), 58-62). Living cells have mitochondrial dehydrogenases that reduce the WST-8 (2-(2-methoxy-4-nitrophenyl)-3-(4-nitrophenyl)-5-(2,4-disulfophenyl)-2H-tetrazolium), monosodium salt) to formazan of an orange colour, which dissolves directly in the culture medium in the presence of 1-Methoxy PMS (1-methoxy-5-methylphenazinium methyl sulphate). After an incubation for 1 h at 37° C., the absorbance of the formazan is measured at 450 nm. The absorbance is directly proportional to the number of living cells.
(§2) Briefly, the cells are inoculated in 96-well plates at a rate of 5.10^3 cells per well in 100 μL of the suitable medium until subconfluence. The cells are then washed with D-PBS, then treated with various concentrations (10 μM, 100 μM) of the products to be tested in triplicates for 24 and 48 h. A positive control is carried out with 10% of DMSO. The CCK-8 (10 μL) solution is then added to each well for an incubation for 1 h at 37° C. The measurement of the absorbance is taken at 450 nm using a Perkin Elmer 2103 Envision® microplate reader.
(§3) The viability of the cells is expressed as a % of the control (untreated cells) by the mean±standard deviation of triplicates forming a representative experiment or of three independent experiments conducted in triplicate.
In general terms: Tetrazolium assays rely on reduction of a dye to a coloured formazan, in cell work by metabolically active cells.

The test system of data set [6] is rat pheochromocytoma cells, treated as neuronal cells (PC12). The data set is described as follows: Cytotoxicity, cellular viability (CCK-8/WST-8) on PC12. Type of data set: cell-based. Particulars: rat. How it is done:
as §1, §2, §3

For data set [7], the system named is human fibroblasts (MRC-5). The data set is described as follows: Cytotoxicity, cellular viability (CCK-8/WST-8) on MRC-5. Type of data set: cell-based. On the procedure:
as §1, §2, §3

In the case of `Cc1c(O)c(=O)ccn1CCCNC(=O)CCC(N)CN` (stereo not shown) [Compound 37j, 4,5-diamino-N-(3-(3-hydroxy-2-methyl-4-oxopyridin-1(4H)-yl)propyl)pentanamide], the “disappearance of the free scavenger to the benefit of adducts with the MGO” value in data set [1] is “almost total disappearance of the free scavenger”. For the same compound, the “Cu^2+ chelating properties (complexation of the Cu^2+)” value in data set [2] was “most active”. The compound also displayed an ORACFL in data set [3] of 1.01 ± 0.06 μmol TE/μmol.
For `Cc1c(O)c(=O)ccn1CCC(=O)NCCCCC(N)CN` (stereo not shown) [Compound 37i, N-(5,6-diaminohexyl)-3-(3-hydroxy-2-methyl-4-oxopyridin-1(4H)-yl)propanamide], in that order: “almost total disappearance of the free scavenger”, “most active” and 1.24 ± 0.02 μmol TE/μmol.
`COc1cc(/C=C/C(=O)NCCCCC(N)CN)ccc1O` (stereo not shown) [Compound 29b, (E)-N-(5,6-diaminohexyl)-3-(4-hydroxy-3-methoxyphenyl)acrylamide]: the “Cu^2+ chelating properties (complexation of the Cu^2+)” value in data set [2] is “poor results”. The compound further came in with an ORACFL in data set [3] of 1.50 ± 0.10 μmol TE/μmol. Further, the “antioxidant / pro-oxidant behaviour” value in data set [4] (concentrations ranging from 25 to 100) is “antioxidants”; in data set [4] (lower concentrations, 0.1 to 10 μM), “pro-oxidants”. The “viability of the cells as a percentage of the untreated cells” value came out at 92% in data set [5] (24 h, 10 μM); 86% in data set [5] (24 h, 100 μM); 92% in data set [5] (48 h, 10 μM); 90% in data set [5] (48 h, 100 μM); 108% in data set [6] (24 h, 10 μM); 112% in data set [6] (24 h, 100 μM). The “viability of the cells as a percentage of the untreated cells” value in data set [6] (48 h, 10 μM) came to 95%; in data set [6] (48 h, 100 μM), 97%; in data set [7] (MRC-5, 10 μM, 24 h of treatment), 106%; in data set [7] (MRC-5, 10 μM, 48 h of treatment) it was 95%; in data set [7] (MRC-5, 100 μM, 24 h of treatment), 102%; in data set [7] (MRC-5, 100 μM, 48 h of treatment), 100%.

The values above are taken from patent US10464920B2, “Vicinal primary diamines associated with metal and/or free radical chelation motifs, and active against carbonyl and oxidative stress, and use thereof” (UNIVERSITE AMIENS PICARDIE JULES VERNE, priority 2015, dated 2019).
